No end group written: not given here.
Legend:
[1] = test system: HEK293T; test: Mammalian cell cytotoxicity, WST-1; format: cell-based, human; details: 24 h, WST-1, triplicate
Method: (§1) Two mammalian cell lines, including human embryonic kidney cells (HEK293T) and human breast cancer cells (MCF7) were cultured in Dulbecco’s modified Eagle’s medium (DMEM; Hyclone^TM, Logan, UT, United States) supplemented with 10% FBS (Hyclone^TM) and 1% penicillin/streptomycin (Hyclone^TM) and incubated at 37°C and 5% CO2 up to 80% confluence. Cellular adherence to the substratum was disrupted using Accutase (Innovative Cell Technologies, San Diego, CA, United States). In total, 1 × 10^4 to 4 × 10^4 cells in each well of a 96-well plate containing 8, 16, 32, and 64 μg/mL of ModoCath peptides were incubated for 24 h at 37°C and 5% CO2. Additionally, HEK293T cells were incubated in the FBS-free medium. Triton X 100 (Sigma Aldrich) was used as a positive control for complete cell lysis, and untreated cells were used as the negative control. After incubation, the medium was removed from the wells, and 10 μL of coloring solution (Cell Proliferation Reagent WST-1^TM; Sigma Aldrich) and 100 μL of DMEM (Hyclone^TM) were added to the wells in accordance with the manufacturer’s protocol. Absorbance was measured for each well at 440 nm (peptide-treated and control) and 650 nm (background) and recorded as the OD, using a microplate reader (xMark^TM spectrophotometer; Bio-Rad). Cell viability was calculated using the following equation:
(§2) (1) CellViability(%)=100×(ODpeptide-ODbackground)/(ODnegative-ODbackground)
(§3) All experiments were performed in triplicate.

[2] = test system: MCF7; test: Mammalian cell cytotoxicity, WST-1; format: cell-based, human; details: 24 h, WST-1, triplicate
Method: as §1, §2, §3

[3] = test system: HEK293T and MCF7 cells and human primary keratinocytes; test: Cytotoxicity, summary over all tested cells; format: cell-based; details: at concentrations below 16 μg/mL
Method: as §1, with “Triton X 100 (Sigma Aldrich) was used as a positive control for complete cell lysis, and untreated cells were used as the negative control. After incubation, the medium was removed from the wells, and 10 μL of coloring solution (Cell Proliferation Reagent WST-1^TM; Sigma Aldrich) and 100 μL of DMEM (Hyclone^TM) were added to the wells in accordance with the manufacturer’s protocol.” left out, “equation: […]” for “equation:”
Primary keratinocytes were cultured in 96-well plates at 4 × 10^4 cells per well in 0.1 mL K-SFM (Invitrogen) up to 80% confluence before being treated with various concentrations of ModoCath peptides for 24 h. Cell viability was assessed using the cell proliferation kit II (XTT; Roche, Basel, Switzerland) in accordance with the manufacturer’s protocol. […]

[4] = test system: HEK293T; test: Mammalian cell cytotoxicity, WST-1, FBS-free medium; format: cell-based, human; details: HEK293T cells, mean ± SD, triplicated
Method: as §1, §2, §3

[5] = test system: E. coli (ATCC 25922); test: Serum stability: antimicrobial activity after incubation in human serum; format: in vitro ADME, Escherichia coli; details: for antimicrobial activity after incubation with human serum: 25% (v/v) pooled human serum, 37°C, activity against E. coli, OD 450 nm, triplicate; for antimicrobial activity after incubation with serum: 25% pooled human serum, 0, 60 and 120 min, Figure S6
Method: Antimicrobial peptides were dissolved in 25% (v/v) pooled human serum from five individuals, and incubated at 37°C. Aliquots were extracted in triplicate after 0, 60, and 120 min incubation, and their antimicrobial activity against E. coli (ATCC 25922) was assessed using the incubated samples, as described above.

[6] = at a higher concentration than 1x MIC

## VRRSKRGIKVPSFVKKVLKDVVSESIS [ΔModoCath6]
[1]; 8 μg/mL, 37°C
  Cell viability ± SD: 103.8 ± 5.0%
[1]; 16 μg/mL
  Cell viability ± SD: 95.6 ± 8.4%
[1]; 32 μg/mL
  Cell viability ± SD: 89.0 ± 13.1%
[1]; 64 μg/mL
  Cell viability ± SD: 88.8 ± 8.1%
[2]; 8 μg/mL
  Cell viability ± SD: 89.2 ± 1.4%
[2]; 16 μg/mL
  Cell viability ± SD: 93.2 ± 0.9%
[2]; 32 μg/mL
  Cell viability ± SD: 92.8 ± 1.0%
[2]; 64 μg/mL
  Cell viability ± SD: 95.2 ± 1.0%
[3]
  Cell survivability: > 90%

## WYQLIRTFGNLIHQKYRKLLEAYRKLRD [ΔModoCath5]
[4]; peptide 8 ㎍/㎖
  Cell viability ± SD (%) Serum negative: 98.6±6.5%
[4]; peptide 16 ㎍/㎖
  Cell viability ± SD (%) Serum negative: 63.5±5.2%
[4]; peptide 32 ㎍/㎖
  Cell viability ± SD (%) Serum negative: 39.3±7.6%
[4]; peptide 64 ㎍/㎖
  Cell viability ± SD (%) Serum negative: 34.0±1.6%
[5]; 60 min, at >∼2× MIC
  antimicrobial activity after incubation with human serum: unaffected
[5]; 120 min
  antimicrobial activity after incubation with human serum: decreased
[5]; at 1x MIC
  antimicrobial activity after incubation with serum: highly affected
[5]; [6]
  antimicrobial activity after incubation with serum: considerably stable
[1]; 8 μg/mL, 37°C
  Cell viability ± SD: 93.7 ± 8.3%
[1]; 16 μg/mL
  Cell viability ± SD: 67.4 ± 3.1%
[1]; 32 μg/mL
  Cell viability ± SD: 47.8 ± 2.7%
[1]; 64 μg/mL
  Cell viability ± SD: 35.0 ± 0.8%
[2]; 8 μg/mL
  Cell viability ± SD: 98.4 ± 4.2%
[2]; 16 μg/mL
  Cell viability ± SD: 84.6 ± 0.6%
[2]; 32 μg/mL
  Cell viability ± SD: 28.4 ± 0.7%
[2]; 64 μg/mL
  Cell viability ± SD: 10.3 ± 2.8%

## VKRTKRGARRGLTKVLKKIFGSIVKKAVSKGV [ΔModoCath1]
[4]; peptide 8 ㎍/㎖
  Cell viability ± SD (%) Serum negative: 109.5±9.8%
[4]; peptide 16 ㎍/㎖
  Cell viability ± SD (%) Serum negative: 103.7±6.9%
[4]; peptide 32 ㎍/㎖
  Cell viability ± SD (%) Serum negative: 69.5±7.9%
[4]; peptide 64 ㎍/㎖
  Cell viability ± SD (%) Serum negative: 55.9±4.4%
[5]; 60 min, at >∼2× MIC
  antimicrobial activity after incubation with human serum: unaffected
[5]; 120 min
  antimicrobial activity after incubation with human serum: decreased
[5]; at 1x MIC
  antimicrobial activity after incubation with serum: highly affected
[5]; [6]
  antimicrobial activity after incubation with serum: considerably stable
[1]; 8 μg/mL, 37°C
  Cell viability ± SD: 108.1 ± 9.9%
[1]; 16 μg/mL
  Cell viability ± SD: 105.5 ± 6.9%
[1]; 32 μg/mL
  Cell viability ± SD: 66.9 ± 5.0%
[1]; 64 μg/mL
  Cell viability ± SD: 55.7 ± 6.2%
[2]; 8 μg/mL
  Cell viability ± SD: 91.2 ± 2.5%
[2]; 16 μg/mL
  Cell viability ± SD: 89.2 ± 0.6%
[2]; 32 μg/mL
  Cell viability ± SD: 79.1 ± 1.8%
[2]; 64 μg/mL
  Cell viability ± SD: 42.4 ± 2.1%
[3]
  Cell survivability: > 90%
